The values that follow are results of earlier work, collected in patent US7994166B2, “Pyrrolidinone benzenesulfonamide derivatives as modulators of ion channels for the treatment of pain” (Vertex Pharmaceuticals Incorporated, priority 2007, dated 2011).

pIC50: −log10 of the molar value.

The data set concerns the target NaV1.8 (Homo sapiens, UniProt Q9Y5Y9). The note with it: read-out: TTX IC50.

Sequence of NaV1.8 (Q9Y5Y9 whole entry, looked up): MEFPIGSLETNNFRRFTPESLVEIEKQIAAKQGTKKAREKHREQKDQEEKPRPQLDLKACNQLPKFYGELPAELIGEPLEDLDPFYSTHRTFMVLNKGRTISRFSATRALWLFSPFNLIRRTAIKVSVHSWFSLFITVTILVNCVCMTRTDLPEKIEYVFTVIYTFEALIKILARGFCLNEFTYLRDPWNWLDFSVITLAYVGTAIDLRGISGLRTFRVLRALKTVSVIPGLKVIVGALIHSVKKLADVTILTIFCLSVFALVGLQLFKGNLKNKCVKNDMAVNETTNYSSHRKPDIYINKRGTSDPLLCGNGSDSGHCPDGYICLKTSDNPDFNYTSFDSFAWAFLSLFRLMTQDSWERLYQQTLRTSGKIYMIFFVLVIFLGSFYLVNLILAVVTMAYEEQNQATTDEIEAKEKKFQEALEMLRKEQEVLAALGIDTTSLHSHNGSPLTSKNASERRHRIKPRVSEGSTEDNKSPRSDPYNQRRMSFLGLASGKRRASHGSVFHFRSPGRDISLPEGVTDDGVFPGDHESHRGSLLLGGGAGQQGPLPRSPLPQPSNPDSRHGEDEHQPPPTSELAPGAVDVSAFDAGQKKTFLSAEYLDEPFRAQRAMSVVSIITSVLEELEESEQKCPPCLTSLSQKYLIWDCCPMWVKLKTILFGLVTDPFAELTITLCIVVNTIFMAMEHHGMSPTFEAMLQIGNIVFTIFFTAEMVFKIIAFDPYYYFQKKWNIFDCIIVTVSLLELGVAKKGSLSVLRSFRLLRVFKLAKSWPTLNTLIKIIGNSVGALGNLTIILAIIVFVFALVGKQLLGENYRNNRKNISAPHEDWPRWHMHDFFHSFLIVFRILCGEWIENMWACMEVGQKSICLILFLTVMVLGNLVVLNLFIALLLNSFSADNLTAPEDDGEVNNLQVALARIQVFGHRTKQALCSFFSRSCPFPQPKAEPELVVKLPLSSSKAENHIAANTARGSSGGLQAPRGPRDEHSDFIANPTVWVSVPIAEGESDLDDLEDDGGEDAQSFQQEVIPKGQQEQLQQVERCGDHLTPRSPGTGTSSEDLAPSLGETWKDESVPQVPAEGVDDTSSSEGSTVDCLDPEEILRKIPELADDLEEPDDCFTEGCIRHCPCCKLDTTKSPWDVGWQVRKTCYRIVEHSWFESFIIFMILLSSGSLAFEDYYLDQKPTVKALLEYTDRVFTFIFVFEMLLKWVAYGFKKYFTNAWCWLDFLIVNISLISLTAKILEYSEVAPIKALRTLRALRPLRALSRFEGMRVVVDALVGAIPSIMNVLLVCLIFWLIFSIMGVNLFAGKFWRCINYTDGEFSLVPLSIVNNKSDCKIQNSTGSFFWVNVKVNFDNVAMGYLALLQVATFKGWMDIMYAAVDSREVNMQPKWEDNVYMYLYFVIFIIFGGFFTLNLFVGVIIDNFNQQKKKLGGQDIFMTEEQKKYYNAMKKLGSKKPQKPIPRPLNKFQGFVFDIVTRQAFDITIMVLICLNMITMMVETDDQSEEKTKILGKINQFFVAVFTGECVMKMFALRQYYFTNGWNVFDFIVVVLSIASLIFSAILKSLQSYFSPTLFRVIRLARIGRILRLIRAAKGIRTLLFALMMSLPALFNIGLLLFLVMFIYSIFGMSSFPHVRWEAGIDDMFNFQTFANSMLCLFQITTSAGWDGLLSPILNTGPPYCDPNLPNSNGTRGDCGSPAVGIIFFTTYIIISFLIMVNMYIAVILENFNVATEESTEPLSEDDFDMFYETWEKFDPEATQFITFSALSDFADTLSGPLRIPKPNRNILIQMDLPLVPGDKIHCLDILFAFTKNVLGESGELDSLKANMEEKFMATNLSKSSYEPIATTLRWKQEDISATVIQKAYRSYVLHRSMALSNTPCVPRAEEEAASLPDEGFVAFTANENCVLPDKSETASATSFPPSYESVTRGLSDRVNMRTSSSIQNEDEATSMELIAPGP

Consider `NC1=N[C@H](O)[C@H]2[C@H]3O[C@]4(O)O[C@@H]([C@@H](O)[C@@]2(N1)[C@@H]4O)[C@]3(O)CO` [TTX, tetrodotoxin], for which the pIC50 is less than 4.30.
